Consider 15 compounds from US8580790B2, “(Heterocycle/condensed piperidine)-(piperazinyl)-1-alkanone or (heterocycle/condensed pyrrolidine)-(piperazinyl)-1-alkanone derivatives and use thereof as p75 inhibitors” (Sanofi, priority 2009, dated 2013).

One may read the melting point as the temperature, or range, at which the solid turns liquid. Compound `Cn1cc2c(n1)CCN(C(=O)CN1CC3CCC(C1)N3c1ncc(F)cn1)C2` showed a melting point of 147 to 149 °C. `COC(=O)c1ccc(N2CC3CCC(C2)N3CC(=O)N2CCc3nn(-c4ccccc4)cc3C2)nc1` came in with a melting point of 157 to 158 °C. For `O=C(CN1CCN(c2cccc(Cl)n2)CC1)N1CCc2nn(-c3ccccc3)cc2C1` [compound 114, 2-[4-(6-chloropyridin-2-yl)piperazin-1-yl]-1-(2-phenyl-2,4,6,7-tetrahydropyrazolo[4,3-c]pyridin-5-yl)ethanone], the melting point was 155 to 156 °C. Then `C[C@@H]1CN(c2ccc(C(F)(F)F)cn2)C[C@H](C)N1CC(=O)N1CCc2nc(-c3ccc(F)cc3)[nH]c2C1` [compound 124, 2-[(2S,6R)-2,6-dimethyl-4-(5-trifluoromethylpyridin-2-yl)piperazin-1-yl]-1-[2-(4-fluorophenyl)-3,4,6,7-tetrahydroimidazo[4,5-c]pyridin-5-yl]ethanone], with 145 to 147 °C; and `O=C(CN1CCN(c2ccc(-c3ccn[nH]3)cn2)CC1)N1CCc2nc(-c3ccccc3)sc2C1` [compound 134, 1-(2-phenyl-6,7-dihydro-4H-thiazolo[5,4-c]pyridin-5-yl)-2-{4-[5-(2H-pyrazol-3-yl)pyridin-2-yl]piperazin-1-yl}ethanone], with 231 to 237 °C. In the case of `C[C@@H]1CN(CC(=O)N2CCc3nn(-c4ccccc4)cc3C2)[C@@H](C)CN1c1ccc(C(=O)O)cn1` [compound 53, 6-{(2R,5S)-2,5-dimethyl-4-[2-oxo-2-(2-phenyl-2,4,6,7-tetrahydropyrazolo[4,3-c]pyridin-5-yl)ethyl]piperazin-1-yl}nicotinic acid], the melting point fell in the range of 165 to 167 °C. Turning to `C[C@@H]1CN(c2ccc(C(=O)O)cn2)C[C@H](C)N1CC(=O)N1CCc2nn(-c3ccccn3)cc2C1` [compound 140, 6-{(3S,5R)-3,5-dimethyl-4-[2-oxo-2-(2-pyridin-2-yl-2,4,6,7-tetrahydropyrazolo[4,3-c]pyridin-5-yl)ethyl]piperazin-1-yl}nicotinic acid], the melting point was 147 to 150 °C.

Compound `O=C(CN1CC2CCC(C1)N2c1ncc(F)cn1)N1CCc2nc(-c3ccccc3)oc2C1` came in with a melting point of 193 °C.

As to `C[C@@H]1CN(CC(=O)N2CCc3nn(-c4ccccc4)cc3C2)[C@@H](C)CN1c1ccc(C#N)cn1` [compound 52, 6-{(2R,5S)-2,5-dimethyl-4-[2-oxo-2-(2-phenyl-2,4,6,7-tetrahydropyrazolo[4,3-c]pyridin-5-yl)ethyl]piperazin-1-yl}nicotinonitrile], the melting point is 156 to 159 °C. `Cn1cc2c(n1)CCN(C(=O)CN1CC3CCC(C1)N3c1ccc(C(F)(F)F)cn1)C2` yielded a melting point of 70 to 71 °C. On to `CC(C)(C)n1ncc2c1CCN(C(=O)CN1CC3CCC(C1)N3c1ncc(F)cn1)C2`, for which the melting point was in the range of 142 to 143 °C. `C[C@@H]1CN(c2ccc(-c3nccs3)cn2)C[C@H](C)N1CC(=O)N1CCc2nn(-c3ccccc3)cc2C1` [compound 135, 2-[(2S,6R)-2,6-dimethyl-4-(5-thiazol-2-ylpyridin-2-yl)piperazin-1-yl]-1-(2-phenyl-2,4,6,7-tetrahydropyrazolo[4,3-c]pyridin-5-yl)ethanone] showed a melting point of 173 to 174 °C. Turning to `O=C(CN1CCN(c2ccc(C(F)(F)F)cn2)C(=O)C1)N1CCc2nc(-c3ccsc3)sc2C1` [compound 42, 4-[2-oxo-2-(2-thiophen-3-yl-6,7-dihydro-4H-thiazolo[5,4-c]pyridin-5-yl)ethyl]-1-(5-trifluoromethylpyridin-2-yl)piperazin-2-one], the melting point fell in the range of 179 to 180 °C.

Regarding `O=C(CN1CC2CCC(C1)N2c1cccnc1)N1CCc2nn(-c3ccccc3)cc2C1`, the melting point was 165 to 168 °C.

Turning to `O=C(CN1CCN(c2ccc(C(F)(F)F)cn2)C(=O)C1)N1CCc2nc(-c3ccccc3)[nH]c2C1` [compound 78, 4-[2-oxo-2-(2-phenyl-3,4,6,7-tetrahydroimidazo[4,5-c]pyridin-5-yl)ethyl]-1-(5-trifluoromethylpyridin-2-yl)piperazin-2-one], the melting point is 198 to 200 °C.
